Our source for the viability values is PMC12040169 (PLOS Biology, 2025).

This data set in a line: in vitro. To be noted: human, hela cells, % viability.

Structures are written as SMILES.

A word on the viability: it is a read-out of living cells in per cent, often relative to untreated cells. As for `CCn1cc(C(=O)O)c(=O)c2cc(F)c(N3CCN(C(=O)c4ccc(C)cc4)CC3)cc21` [CBK286986], the viability at 28.5 h, 10 µM came to 99.6%. With `Cc1ccc(NC(=O)c2cnc(SCc3ccccn3)n(C)c2=O)cc1` [CBK287673], the viability at 28.5 h, 10 µM is 92.9%. Next, `Cn1cccc1C1(O)CCCC2CN(C(=O)c3ccco3)CC21` (stereo not shown) [CBK284509]: 99.9%; `CN(C)Cc1ccccc1-n1ncc(CN2CCS(=O)(=O)CC2)n1` [CBK112877]: 107%. In the case of `O=[N+]([O-])c1ccc(S(=O)(=O)NCCSCc2cccc(Cl)c2)cc1` [CBK268066], the viability at 28.5 h, 10 µM turned out to be 107%. The value for `N/C(=N\C(=O)CN1C(=O)C2CCCCC2C1=O)Nc1nc2ccccc2s1` (stereo not shown) [CBK263877] was 92.4%; that for `Cc1cc(NC(=O)C2CCN(CCOc3ccccc3F)CC2)no1` [CBK305688] was 100%. Consider `Cc1cc2c(SCc3cc(O)[nH]n3)ncnc2s1` [CBK269799], for which the viability at 28.5 h, 10 µM was determined as 93.9%. The value for `FC(F)(F)c1cccc(-c2nccnc2NCc2ccc3c(c2)OCO3)c1` [CBK037350] was 94.2%; that for `O=c1cc(-c2ccccc2)nc(N2CCOCC2)[nH]1` [CBK003840] was 93.9%. Next, `CCCC/C=C/c1cnc2[nH]c(=O)n([C@H](CO)C(C)C)c2n1` [CBK064970]: 95%. Regarding `Oc1ccc(Nc2cc(-c3ccc(Cl)cc3)ncn2)cc1` [CBK090751], the viability at 28.5 h, 10 µM came to 94.3%. The value for `COc1ncc(-c2cnc(N)c(-c3cccc(N(C)C)c3)n2)c(OC)n1` [CBK064017] was 90.9%. Next, `Cc1nc2n(c(=O)c1CCSc1ccccc1C(=O)O)CCCC2` [CBK286818]: 102%; `O=C(C1CC2C=CC1C21CC1)N1CCCC(c2nc3ccccc3[nH]2)C1` (stereo not shown) [CBK281513]: 91.4%; `Oc1cccc(C(O)CNCc2ccc(OCc3ccc(Cl)cc3Cl)cc2)c1` (stereo not shown) [CBK267621C]: 93%. As for `OCCNc1nc(Cl)nc(Nc2nc(-c3ccccc3)cs2)n1` [CBK261381], the viability at 28.5 h, 10 µM was determined as 86.2%. Next, `O=C(Nc1ccc(Cl)cc1)Nc1ccc(OCC(O)CN2CCCCC2)cc1` (stereo not shown) [CBK086101]: 99.4%; `O=C(CN1CCCC2(CCN(C(=O)c3ccoc3)C2)C1)Nc1ncccn1` (stereo not shown) [CBK137140]: 102%; `O=C(c1cncnc1)N1CCC(Cn2cncn2)(C2CCCCC2)CC1` [CBK136823]: 92.7%. Take `FC(F)(F)c1cnc(Oc2ccc(-n3ccnc3)cc2)c(Cl)c1` [CBK161625]: the viability at 28.5 h, 10 µM is 90.9%. The value for `Nn1c(-c2cccs2)nc2ccccc2c1=O` [CBK003650] was 99.2%; that for `CN1CCC(N(C)Cc2cc(Cl)ccc2[N+](=O)[O-])CC1` [CBK261576] was 91.1%. In the case of `Cc1ccc(S(=O)(=O)N2CC(=O)NC2=S)cc1` [CBK023293], the viability at 28.5 h, 10 µM came out at 94.5%.

As for `COc1ccc(C(=O)COC(=O)c2cc(-c3ccc(Cl)cc3)nc3ccc(C)cc23)cc1[N+](=O)[O-]` [CBK264072], the viability at 28.5 h, 10 µM was 90.6%. As to `Cc1noc2nc(C3CCCN(C(=O)C4CC4)C3)cc(C(F)F)c12` (stereo not shown) [CBK284608], the viability at 28.5 h, 10 µM amounted to 85.8%. Turning to `CN(C)c1ccc(NC(=O)CN2C(=O)[C@H]3CCCN3c3ncccc32)cc1` [CBK286202], the viability at 28.5 h, 10 µM was determined as 118%. On to `CN(CCCc1nc(-c2ccc(Cl)cc2)no1)S(=O)(=O)c1ccc([N+](=O)[O-])cc1` [CBK267365], for which the viability at 28.5 h, 10 µM was determined as 96%. `CC(C)n1c(=O)n(CCN2CCCCC2)c2cccnc21` [CBK283932]: the viability at 28.5 h, 10 µM worked out at 95.4%.

Regarding `O=C(N[C@H]1CO[C@H]2[C@@H]1OC[C@@H]2n1cc(-c2ccccn2)nn1)c1ccc(C(F)(F)F)cc1` [CBK289507], the viability at 28.5 h, 10 µM worked out at 89.7%. For the compound `O=C1NC(=O)C(CCCCN2CCC3(CCN(C(=O)c4cc(F)c(F)cc4F)C3)C2)N1` (stereo not shown) [CBK132147], the viability at 28.5 h, 10 µM was 84.8%.

As for `COc1ccc(C(=O)O)cc1S(=O)(=O)Nc1c(-c2cccs2)nc2cc(C)ccn12` [CBK297484], the viability at 28.5 h, 10 µM turned out to be 82.9%.

Regarding `Cn1nc(NC(=O)CN2CCOC2=O)c2c(N3CCOCC3)cccc21` [CBK306830], the viability at 28.5 h, 10 µM is 102%.

Regarding `FC(F)(F)c1nc2ccccc2[nH]1` [CBK028224], the viability at 28.5 h, 10 µM worked out at 84.5%. In the case of `Cc1ccc(C(=O)Nc2ccccc2C(=O)NC(C)C(=O)O)cc1` (stereo not shown) [CBK263540], the viability at 28.5 h, 10 µM was found to be 93.9%. With `CS(=O)(=O)c1cccc(S(=O)(=O)N2CCN(Cc3ccccc3)CC2)c1` [CBK269747], the viability at 28.5 h, 10 µM came out at 88.9%.

Take `Fc1ccc(CCN2CCC(Oc3cncc(OCC4COc5ccccc5O4)n3)C2)cc1` (stereo not shown) [CBK084383]: the viability at 28.5 h, 10 µM amounted to 99.8%. With `O=C(NCCCN1CCOCC1)Nc1ccccc1F` [CBK269233], the viability at 28.5 h, 10 µM turned out to be 88.6%.

For `O=C(Cc1ccc(Cl)cc1)NC(=S)Nc1ccccc1[N+](=O)[O-]` [CBK263909], the viability at 28.5 h, 10 µM was 95.4%. Take `Cc1ccc(-c2nnc(C3CCCN(C(=O)C4CC4)C3)o2)s1` (stereo not shown) [CBK285516]: the viability at 28.5 h, 10 µM is 83.9%. `Cn1c(O)c(CCNc2cc(C3CCOC3)ncn2)cnc1=O` (stereo not shown) [CBK307648]: the viability at 28.5 h, 10 µM came to 90.7%. As for `Cc1nn(C)c(Oc2ccccc2OCc2ccccc2)c1[N+](=O)[O-]` [CBK000281], the viability at 28.5 h, 10 µM stood at 102%. Next, `O=C1NC2(CC3CCC2N3Cc2ccco2)Nc2ccccc21` (stereo not shown) [CBK284446]: 91.8%; `CCn1cc(CN2CCCN(C(=O)c3cc(C4CC4)on3)CC2)cn1` [CBK305401]: 88.1%; `CCN1CC2(CCN(CCOc3ccccc3)CC2)c2ccccc21` [CBK122705]: 100%.

Take `OCC1CCCN1c1nc(-c2ccc(Oc3ccccc3)cc2)cn2ccnc12` (stereo not shown) [CBK066713]: the viability at 28.5 h, 10 µM amounted to 100%.

As to `CC(C)C(=O)N1CC2(CCN(Cc3nc4ccccc4[nH]3)CC2)c2ccccc21` [CBK126719], the viability at 28.5 h, 10 µM stood at 110%. Next, `COC(=O)c1cn([C@H]2CO[C@H]3[C@@H]2OC[C@@H]3NC(=O)C2CC2)nn1` [CBK289497]: 86%; `NC(=O)COc1ccccc1O` [CBK261029]: 111%. As to `COc1ccc([C@@]23CC[C@@H](NC(=O)c4cccc(Cl)c4)C[C@@H]2N(C)CC3)cc1OC` [CBK073982T], the viability at 28.5 h, 10 µM is 93.5%. As to `Cn1cc(CNCc2ccc(N3CCCC3)nc2)c(-c2cccnc2)n1` [CBK306312], the viability at 28.5 h, 10 µM stood at 105%. Regarding `COc1ccccc1NC(=O)N1CCC2(CC1)NC(=O)Cc1cc3ccccc3cc12` [CBK047284], the viability at 28.5 h, 10 µM turned out to be 92.1%.

On to `CCOC(=O)C1(O)CCN(c2ccc(C#N)cc2F)CC1` [CBK304836], for which the viability at 28.5 h, 10 µM worked out at 94%.

On to `Cc1cc(F)c(S(N)(=O)=O)cc1NC(=O)c1ccc(CN2CCOCC2)o1` [CBK059376C], for which the viability at 28.5 h, 10 µM was 97.7%. For the compound `O=C(O)c1ccccc1C(=O)N1CCC2(CC1)OCCc1c2[nH]c2ccccc12` [CBK046981], the viability at 28.5 h, 10 µM is 94.9%.

On to `COc1ccc(Cl)cc1Nc1ncnc(N)n1` [CBK288195], for which the viability at 28.5 h, 10 µM amounted to 100%. Next, `COc1ccc(C(C)C)cc1-c1cncc(N2CCN(c3ccccc3C#N)CC2)n1` [CBK037927]: 98.8%. The value for `O=C(O)c1ccc(N2N=C(c3ccccc3)/C(=C\c3cccc([N+](=O)[O-])c3O)C2=O)cc1` [CBK265615] was 102%; that for `CC(C)(O)C#Cc1ccc(C(=O)NCCc2ccc(S(N)(=O)=O)cc2)cc1` [CBK263110] was 98.2%; that for `CN(C)c1cccc(-c2cnc3[nH]c(=O)n(CCc4ccncc4)c3n2)c1` [CBK064628] was 91.1%. As to `Fc1ccccc1-c1nc2cnccn2c1NCc1cccs1` [CBK282332], the viability at 28.5 h, 10 µM came to 90.3%.

Regarding `Cc1nc(C2CCN(C(=O)c3cscn3)CC2)c2sccn12` [CBK285240], the viability at 28.5 h, 10 µM is 107%. Next, `Cc1onc(-c2ccccc2)c1CNC(=O)c1cccnc1` [CBK144100]: 111%. Take `CS(=O)(=O)c1ccc(-c2cnc(N)c(NCc3ccncc3)n2)cc1` [CBK063647]: the viability at 28.5 h, 10 µM is 105%.

For `Cc1nccn1CCCC(=O)NCC1(c2ccccc2F)CCCC1` [CBK281370], the viability at 28.5 h, 10 µM is 109%. The value for `O=C(NCC(CO)Cc1ccccn1)c1ccc2cc[nH]c2c1` (stereo not shown) [CBK305222] was 81.6%; that for `CC(=O)Nc1nnc(-c2ccc3c(c2)CCCC3)o1` [CBK287426] was 88%.

For `O=C(NCc1ccccc1)c1ccnc2ccccc12` [CBK200191], the viability at 28.5 h, 10 µM was found to be 83.7%. Next, `C/C(=N/Nc1ccc([N+](=O)[O-])cc1[N+](=O)[O-])C1CC1` [CBK260921]: 104%; `COc1ccc(-n2nnnc2SCC(=O)c2ccc(O)c(O)c2)cc1` [CBK293969]: 90.3%; `O=C1CCCN1CC(=O)N1CCCC(c2cc3ccccc3cn2)C1` (stereo not shown) [CBK285091]: 99.7%. As to `COc1ccccc1CN(CN1C(=O)c2ccccc2C1=O)CN1C(=O)c2ccccc2C1=O` [CBK265039], the viability at 28.5 h, 10 µM was 94.9%. `Cc1cc(COc2nccnc2OC2CCN(CCN3CCOCC3)CC2)no1` [CBK082961T]: the viability at 28.5 h, 10 µM is 103%. As for `O=C(NCCS(=O)(=O)c1ccccc1)c1cnc(-c2ccc(Cl)cc2)c(-c2ccncc2)c1` [CBK037587], the viability at 28.5 h, 10 µM turned out to be 100%.

With `Cc1cc(C)nc(N/C(=N\C(=O)c2ccccc2)N2CCC(C(N)=O)CC2)n1` [CBK263910], the viability at 28.5 h, 10 µM was 99.4%. The value for `Cc1cc(C)c2nc(NC(=O)c3ccc(=O)n(CC(=O)NC4CCCCC4)c3)sc2c1` [CBK285980] was 107%; that for `N#Cc1ccc(OCC(=O)Nc2cccnc2-n2cncn2)cc1` [CBK306004] was 85.9%; that for `COc1ccc(Br)cc1CNCCCN1CCOCC1` [CBK278208C] was 102%. The value for `CC1CCN(C(=S)NC2CC3CCC2C3)CC1` (stereo not shown) [CBK085998] was 91.3%.
